Reference: publication PMC8750417, “Intracellular Amplifiers of Reactive Oxygen Species Affecting Mitochondria as Radiosensitizers” (Cancers, 2021)
Read-outs that look alike come from different tables or passages of the source.

How the values were obtained:
Jurkat cells = assay: Jurkat flow cytometry (AnnexinA5/PI viability, DiIC1(5) MMP, monobromobimane GSH, cell cycle); format: cell-based, human; conditions: for IC50: 48 h incubation
Procedure: Jurkat cells The cells were counted in MUSE Cell Analyzer using MUSE® Count &Viability Assay Kit (Merck-Millipore, Billerica, MA, USA) and adjusted to a density of 1.0 x 10^5/ml in RPMI 1640 medium (with 10% FCS and 1% glutamine). 9.000 cells per well per 90 µL were seeded into 96 well culture plates. The 30 mM prodrug stock solutions in DMSO were diluted to 300 µM, 100 µM, 30 µM and 10 µM in cell culture medium and 10 µL of the dilutions was pipetted to the cells, receiving final test concentrations of 30 µM, 10 µM, 3 µM and 1 µM. Every concentration was tested in triplicates. Cells with corresponding amounts of DMSO served as negative controls. After 48 h cells were mixed and 25 µL of […]
the cell suspension was incubated with 200 µL of freshly prepared staining solution, consisting of AnnexinA5-Fitc (1 µL), 1,1′,3,3,3′,3′-hexamethylindodicarbocyanine iodide (DiIC1(5), 0.4 µL) (both from ThermoFisher Scientific, Waltham, MA, USA), propidium iodide (PI, 67 ng) and monobromobimane (MBB, 33 µM, both from Sigma-Aldrich, Taufkirchen, Germany) per 1 ml Ringer’s solution (Fresenius Kabi AG, Bad Homburg, Germany). Cells were incubated for 20 min at 4°C and then analyzed in Gallios cytofluorometer™ (Beckman Coulter, Fullerton, CA, USA). Fitc and propidium iodide were excited at 488 nm; Fitc fluorescence was recorded on the FL1 sensor (525/38 nm band pass, BP) and propidium iodide fluorescence was detected on FL3 sensor (620/30 nm BP), DiIC1(5) fluorescence was excited at 638 nm and detected on FL6 sensor at 675/20 nm BP, and monobromobimane fluorescence was excited at 405 nm and detected on FL9 sensor at 430/40 nm BP. To eliminate any fluorescence bleed-through, electronic compensation was used. Data were analyzed employing Kaluza™ software Version 1.2 (Beckman Coulter, Fullerton, CA, USA) and processed in Microsoft Excel (Figures S51-S54, Table S5). Cells negative for Annexin A5-Fitc and propidium iodide were considered viable. IC50 values were determined by fitting the % values of Ax-PI- cells versus drug concentration with a sigmoidal curve using GraphPad Prism software. Reduced glutathione (an intracellular thiol) can be detected by monobromobimane, a dye that becomes fluorescent after non-enzymatic binding to thiols.[S3] For analysis of amount of mitochondrial membrane potential or reduced glutathione the mean fluorescence index (MFI) was determined from viable cells by gating on Ax -PI- events.
Table S5. Effects of the prodrugs on the viability of Jurkat cell lines (IC50 values) after 48

human fibroblasts (HF) = assay: Cytotoxicity MTT assay, human fibroblasts; format: cell-based; conditions: read-out: 50% cell survival (EC50)
Procedure: Study of synergy of prodrugs with radiotherapy for SAS and FaDu cells
Optimization of concentration of prodrugs and controls / MTT assay
The MTT assay was also applied to assess the impact of various drugs (0.01-100 µM) on the viability of the two human head and neck squamous carcinoma cell (HNSCC) lines SAS and FaDu as well as retinal pigment epithelial ARPE-19 cells and human fibroblasts (HF). Cells were seeded into 96-well plates at concentrations of 4000 and 2000 cells per […]
h before exposure to the drugs. All drug dilutions were prepared from 20 mM stock solutions in DMSO. The final DMSO concentration was set to 0.5% in all sample s including control. After completion of the treatment, the wells were processed according to the routine MTT protocol as described above; the formazan absorbance was then measured on a Biotek Epoch Microplate Spectrophotometer at 590 nm and corrected for the background signal at 620 nm. N≥3 independent experiments were performed for each drug candidate, cell type and treatment interval. Cell survival was recorded as function of the drug concentration, and dose-response curves were fitted with the Boltzmann equation where appropriate. We calculated the half-maximal response (EC50) as well as the EC20 (80% survival) according to the line curve (see Tables S6-S8). EC20-values were used as a basis to select the compound-specific non-toxic drug concentrations for combination with radiotherapy.

FaDu cells = assay: Clonogenic assay (colony formation), FaDu; format: cell-based, human; conditions: for Relative clonogenic survival: 48 h exposure, untreated control = 1
Procedure: Optimization of concentration of prodrugs and controls / clonogenic assay The clonogenic survival assay is a classical approach to monitor radioresponse and drug- induced radiosensitization in cancer cells. We therefore initially determined whether the supposedly non -toxic drug concentrations defined for combinatorial treatment testing affect single cell colony formation capacity. For this pu rpose, exponentially growing SAS and FaDu cells were dissociated, single cell suspensions were prepared in standard DMEM and seeded in 6 -well plates at […]
defined low density (150-300 cells in 1 ml per well). After 8 h of incubation to allow cell adherence, 50% of the supernatant was exchanged by media containing the respective prodrugs at 2x concentration and exposed for 48 h. Treatment was then terminated by medium removal, and cells were allowed to grow for a period of ≥5-6 cell divisions estimated from the cell line-specific doubling times of the respective untreated controls (~7 days for SAS and ~10 days for FaDu cells). Control cells were always handled in parallel to the treated cells and thus exposed to the corresponding DMSO concentration(s). After the defined growth intervals, cells were fixed, stained and colonies of >50 cells were manually counted at low magnification to calculate plating efficiencies as the number of counted colonies relative to the number of seeded cells. Drug effect on clonogenic survival was then estimated by normalizing the colony formation of control cells to 1 (Table S9). […]

With CC1(C)OB(c2ccc(COC(=O)N(Cc3cn(Cc4ccc(Cn5cc(Cc6ccccc6)nn5)cc4)nn3)[c-]3cccc3)cc2)OC1(C)C.[Fe+2].c1cc[cH-]c1 [2c] the “effect on MMP” value (Jurkat cells; 48 h) was “decrease”, the “effect on cell cycle” value (Jurkat cells; 48 h) was “cell-cycle arrest in the G0/G1 phase” and the “effect on intracellular GSH amount” value (Jurkat cells; 48 h) was “unaffected”. For the same molecule, the “mechanism of cell death” value (Jurkat cells; 48 h, Annexin A5/PI) was “mainly via necrosis”, the IC50 (Jurkat cells) was 5 ± 2 µM and the EC50 (human fibroblasts (HF); 24h) was > 50 µM. For the same molecule, the EC50 (human fibroblasts (HF); 48h) was > 50 µM, the Relative clonogenic survival (FaDu cells; 10 µM) was 0.86 ± 0.13 and the “growth of colonies reduced to” value (FaDu cells; 25 µM) was 20 ± 8%. The Relative clonogenic survival (FaDu cells; 25 µM) was 0.20 ± 0.08.

Work on CC1(C)OB(c2ccc(COC(=O)N(Cc3cccc(CN4CCCCC4)c3)[c-]3cccc3)cc2)OC1(C)C.[Fe+2].c1cc[cH-]c1 [5b] yielded an IC50 (Jurkat cells) of 7.2 ± 0.1 µM, an EC50 (human fibroblasts (HF); 24h) of 35.5 ± 14.9 µM and an EC50 (human fibroblasts (HF); 48h) of 20.8 ± 4.6 µM. The Relative clonogenic survival (FaDu cells; 0.5 µM) was 0.71 ± 0.07, the Relative clonogenic survival (FaDu cells; 1 µM) was 0.75 ± 0.11 and the Relative clonogenic survival (FaDu cells; 2.5 µM) was 0.36 ± 0.10. The “colony formation reduced to” value (FaDu cells; 10-fold lower dose than 25 µM) was 36 ± 10%.

With CCOC(=O)CCCCCn1cc(CN(C(=O)OCc2ccc(B3OC(C)(C)C(C)(C)O3)cc2)[c-]2cccc2)nn1.[Fe+2].c1cc[cH-]c1 [compound 1] the “effect on MMP” value (Jurkat cells; 48 h) was “slight increase”, the “effect on intracellular GSH amount” value (Jurkat cells; 48 h) was “slight increase” and the IC50 (Jurkat cells) was 30 ± 4 µM.

For [Fe+2].c1cc[cH-]c1.c1cc[cH-]c1 [compound 6, ferrocene], the IC50 (Jurkat cells) was > 100 µM, the EC50 (human fibroblasts (HF); 24h) was > 50 µM and the EC50 (human fibroblasts (HF); 48h) was > 50 µM. For the same molecule, the Relative clonogenic survival (FaDu cells; 25 µM) was 0.99 ± 0.08.
